Test results as given in patent US10125134B2 (Mirati Therapeutics, Inc., priority 2016, dated 2018).
Read-outs that look alike come from different tables or passages of the source.

Columns and labels:
KRas G12C = KRas G12C (Homo sapiens, UniProt P01116, C118S/C51S/C80L/G12C); assay: KRas G12C Modification Assay (LCMS detection of covalent adduct); type: binding; conditions: normalized percent of control; tested at 5 μM concentration for 3 hours
Procedure, shortened: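 Covalent modification was read by reverse-phase LC/MS of intact protein after compound exposure, each reaction stopped at its time point with 25 mM acetic acid. Unmodified-protein signal, taken as percent of total, was normalised to untreated protein and reported as POC.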

[1] = tested on: NCI-H358 cells (express KRas G12C), Phospho-ERK; assay: Cellular inhibition of KRas G12C: Phospho-ERK in NCI-H358 cells; type: cell-based; conditions: Homo sapiens, pERK(Thr202/Tyr204) normalized with GAPDH, NCI-H358 cells, 3 hours, read-out: IC50
Procedure, shortened: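 IC50 derived by 4-parameter fit of GAPDH-normalized pERK(Thr202/Tyr204) signal, as percent of DMSO control. Signal came from in-cell immunodetection with infrared secondaries after 3 h compound exposure of KRas G12C NCI-H358 cells at 0.5% DMSO.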

| POC (KRas G12C) | Compound | IC50 ([1]; NCI-H358, 3 h) [nM] | IC50 [1] [nM] |
| --- | --- | --- | --- |
| C (“C”>50% POC) | C=CC(=O)N1CCN(c2nc(OC[C@H]3CCN(C)C3)nc3c2CCN(c2cc(O)cc4ccccc24)C3)CC1 [Example 188, (S)-1-(4-(7-(3-hydroxynaphthalen-1-yl)-2-((1-methylpyrrolidin-3-yl)methoxy)-5,6,7,8-tetrahydropyrido[3,4-d]pyrimidin-4-yl)piperazin-1-yl)prop-2-en-1-one] | 0.1 to 1000 |  |
| C (“C”>50% POC) | C=CC(=O)N1CCN(c2nc(OC[C@@H]3CCCN(C)C3)nc3c2CCN(c2cc(O)cc4ccccc24)C3)CC1 [Example 192, (R)-1-(4-(7-(3-hydroxynaphthalen-1-yl)-2-((1-methylpiperidin-3-yl)methoxy)-5,6,7,8-tetrahydropyrido[3,4-d]pyrimidin-4-yl)piperazin-1-yl)prop-2-en-1-one] | 0.1 to 1000 |  |
| C (“C”>50% POC) | C=CC(=O)N1CCN(c2nc(OCC3COCCN3C)nc3c2CCN(c2cc(O)cc4ccccc24)C3)CC1 (stereo not drawn) [Example 194, 1-(4-(7-(3-hydroxynaphthalen-1-yl)-2-((4-methylmorpholin-3-yl)methoxy)-5,6,7,8-tetrahydropyrido[3,4-d]pyrimidin-4-yl)piperazin-1-yl)prop-2-en-1-one] | > 1000 |  |
| C (“C”>50% POC) | C=CC(=O)N1CCN(c2nc(OC[C@H]3CCCCN3C)nc3c2CCN(c2cc(O)cc4ccccc24)C3)CC1 [Example 195, (R)-1-(4-(7-(3-hydroxynaphthalen-1-yl)-2-((1-methylpiperidin-2-yl)methoxy)-5,6,7,8-tetrahydropyrido[3,4-d]pyrimidin-4-yl)piperazin-1-yl)prop-2-en-1-one] | > 1000 |  |
| C (“C”>50% POC) | C=CC(=O)N1CCN(c2nc(OC[C@@H]3CCCCN3C)nc3c2CCN(c2cc(O)cc4ccccc24)C3)CC1 [Example 196, (S)-1-(4-(7-(3-hydroxynaphthalen-1-yl)-2-((1-methylpiperidin-2-yl)methoxy)-5,6,7,8-tetrahydropyrido[3,4-d]pyrimidin-4-yl)piperazin-1-yl)prop-2-en-1-one] | 0.1 to 1000 |  |
| C (“C”>50% POC) | C=CC(=O)N1CCN(c2nc(OC[C@@H]3CCCN3CC)nc3c2CCN(c2cc(O)cc4ccccc24)C3)CC1 [Example 197, (S)-1-(4-(2-((1-ethylpyrrolidin-2-yl)methoxy)-7-(3-hydroxynaphthalen-1-yl)-5,6,7,8-tetrahydropyrido[3,4-d]pyrimidin-4-yl)piperazin-1-yl)prop-2-en-1-one] | 0.1 to 1000 |  |
| C (“C”>50% POC) | C/C=C/C(=O)N1CCN(c2nc(OC[C@@H]3CCCN3C)nc3c2CCN(c2cc(O)cc4ccccc24)C3)CC1 [Example 198, (S,E)-1-(4-(7-(3-hydroxynaphthalen-1-yl)-2-((1-methylpyrrolidin-2-yl)methoxy)-5,6,7,8-tetrahydropyrido[3,4-d]pyrimidin-4-yl)piperazin-1-yl)but-2-en-1-one] | > 1000 |  |
| C (“C”>50% POC) | C=CC(=O)N1CCN(c2nc(OC[C@@H]3CCCN3C)nc3c2CCN(c2cc(O)cc4ccccc24)C3)[C@@H](C)C1 [Example 202, 1-((S)-4-(7-(3-hydroxynaphthalen-1-yl)-2-(((S)-1-methylpyrrolidin-2-yl)methoxy)-5,6,7,8-tetrahydropyrido[3,4-d]pyrimidin-4-yl)-3-methylpiperazin-1-yl)prop-2-en-1-one] | 0.1 to 1000 |  |
| C (“C”>50% POC) | C=CC(=O)N1CCN(c2nc(OC[C@H]3CCCN3C)nc3c2CCN(c2cc(O)cc4ccccc24)C3)[C@@H](C)C1 [Example 203, 1-((S)-4-(7-(3-hydroxynaphthalen-1-yl)-2-(((R)-1-methylpyrrolidin-2-yl)methoxy)-5,6,7,8-tetrahydropyrido[3,4-d]pyrimidin-4-yl)-3-methylpiperazin-1-yl)prop-2-en-1-one] | 0.1 to 1000 |  |

The remaining lines, values behind:

| Compound | POC (KRas G12C) | IC50 ([1]; NCI-H358, 3 h) [nM] | IC50 [1] [nM] |
| --- | --- | --- | --- |
| C=CC(=O)N1CCN(c2nc(OCCCO)nc3c2CCN(c2cc(O)cc4ccccc24)C3)CC1 [Example 184, 1-[4-[7-(3-hydroxy-1-naphthyl)-2-(3-hydroxypropoxy)-6,8-dihydro-5H-pyrido[3,4-d]pyrimidin-4-yl]piperazin-1-yl]prop-2-en-1-one] | C (“C”>50% POC) | > 1000 |  |
| C=CC(=O)N1CCN(c2nc(-c3cccc(CN4CCOCC4)c3)nc3c2CCN(c2cc(O)cc4ccccc24)C3)CC1 [Example 186] | B (“B”>25% POC−≤50% POC) |  | > 1000 |
| C=CC(=O)N1CCN(c2nc(OCC3CCN(Cc4ccccc4)C3)nc3c2CCN(c2cc(O)cc4ccccc24)C3)CC1 (stereo not drawn) [Example 189, 1-(4-(2-((1-benzylpyrrolidin-3-yl)methoxy)-7-(3-hydroxynaphthalen-1-yl)-5,6,7,8-tetrahydropyrido[3,4-d]pyrimidin-4-yl)piperazin-1-yl)prop-2-en-1-one] | C (“C”>50% POC) | > 1000 |  |
| C=CC(=O)N1CCN(c2nc(OCC3CCN(C4CC4)C3)nc3c2CCN(c2cc(O)cc4ccccc24)C3)CC1 (stereo not drawn) [Example 190, 1-(4-(2-((1-cyclopropylpyrrolidin-3-yl)methoxy)-7-(3-hydroxynaphthalen-1-yl)-5,6,7,8-tetrahydropyrido[3,4-d]pyrimidin-4-yl)piperazin-1-yl)prop-2-en-1-one] | C (“C”>50% POC) | 0.1 to 1000 |  |
| C=CC(=O)N1[C@H](C)CN(c2nc(OCCCN3CCOCC3)nc3c2CCN(c2cc(O)cc4ccccc24)C3)C[C@@H]1C [Example 191, 1-((2S,6R)-4-(7-(3-hydroxynaphthalen-1-yl)-2-(3-morpholinopropoxy)-5,6,7,8-tetrahydropyrido[3,4-d]pyrimidin-4-yl)-2,6-dimethylpiperazin-1-yl)prop-2-en-1-one] | C (“C”>50% POC) |  | > 1000 |
| C=CC(=O)N1CCN(c2nc(OCC3CN(C)CCO3)nc3c2CCN(c2cc(O)cc4ccccc24)C3)CC1 (stereo not drawn) [Example 193, 1-(4-(7-(3-hydroxynaphthalen-1-yl)-2-((4-methylmorpholin-2-yl)methoxy)-5,6,7,8-tetrahydropyrido[3,4-d]pyrimidin-4-yl)piperazin-1-yl)prop-2-en-1-one] | C (“C”>50% POC) | 0.1 to 1000 |  |
| CN(C)C/C=C/C(=O)N1CCN(c2nc(OC[C@@H]3CCCN3C)nc3c2CCN(c2cc(O)cc4ccccc24)C3)CC1 [Example 199, (S,E)-4-(dimethylamino)-1-(4-(7-(3-hydroxynaphthalen-1-yl)-2-((1-methylpyrrolidin-2-yl)methoxy)-5,6,7,8-tetrahydropyrido[3,4-d]pyrimidin-4-yl)piperazin-1-yl)but-2-en-1-one] | C (“C”>50% POC) | > 1000 |  |
| C=CC(=O)N1CCN(c2nc(OC[C@@H]3CCCN3C)nc3c2CCN(c2cccc4ccccc24)C3)C[C@H]1C [Example 201, 1-((R)-2-methyl-4-(2-(((S)-1-methylpyrrolidin-2-yl)methoxy)-7-(naphthalen-1-yl)-5,6,7,8-tetrahydropyrido[3,4-d]pyrimidin-4-yl)piperazin-1-yl)prop-2-en-1-one] | B (“B”>25% POC−≤50% POC) | > 1000 |  |
| C=CC(=O)N1CCN(c2nc(NC3CCN(C4CC4)CC3)nc3c2CCN(c2cc(O)cc4ccccc24)C3)CC1 [Example 204, 1-(4-(2-((1-cyclopropylpiperidin-4-yl)amino)-7-(3-hydroxynaphthalen-1-yl)-5,6,7,8-tetrahydropyrido[3,4-d]pyrimidin-4-yl)piperazin-1-yl)prop-2-en-1-one] | C (“C”>50% POC) |  | > 1000 |
